Laboratory results reported in the NIST ThermoML archive (doi:10.1016/j.jct.2011.04.005).

Key:
[1] = xn = mol fraction of the nth substance listed; conditions: Maximal bubble pressure
[2] = Maximal bubble pressure

CCCCCCCCCC [decane] + CCO
[1]
Conditions | surface tension liquid-gas [mN/m]
303.15 K, x2 = 0.034 | 22.85
303.15 K, x2 = 0.101 | 22.6
303.15 K, x2 = 0.189 | 22.3
303.15 K, x2 = 0.29 | 22.1
303.15 K, x2 = 0.395 | 21.95
303.15 K, x2 = 0.492 | 21.85
303.15 K, x2 = 0.59 | 21.75
303.15 K, x2 = 0.696 | 21.65
303.15 K, x2 = 0.801 | 21.55
303.15 K, x2 = 0.907 | 21.45
303.15 K, x2 = 0.959 | 21.44
303.15 K, x2 = 0.982 | 21.43
308.15 K, x2 = 0.076 | 22.25
308.15 K, x2 = 0.173 | 22
308.15 K, x2 = 0.286 | 21.8
308.15 K, x2 = 0.373 | 21.68
308.15 K, x2 = 0.486 | 21.54
308.15 K, x2 = 0.593 | 21.46
308.15 K, x2 = 0.695 | 21.4
308.15 K, x2 = 0.8 | 21.29
308.15 K, x2 = 0.902 | 21.2
308.15 K, x2 = 0.954 | 21.17
318.15 K, x2 = 0.067 | 21.51
318.15 K, x2 = 0.16 | 21.25
318.15 K, x2 = 0.272 | 21
318.15 K, x2 = 0.366 | 20.83
318.15 K, x2 = 0.472 | 20.67
318.15 K, x2 = 0.585 | 20.54
318.15 K, x2 = 0.698 | 20.48
318.15 K, x2 = 0.803 | 20.37
318.15 K, x2 = 0.907 | 20.3
318.15 K, x2 = 0.958 | 20.36

CCCCCCCC [octane] + CCO
[1]
Conditions | surface tension liquid-gas [mN/m]
298.15 K, x2 = 0.099 | 20.91
298.15 K, x2 = 0.208 | 20.9
298.15 K, x2 = 0.294 | 20.79
298.15 K, x2 = 0.391 | 20.8
298.15 K, x2 = 0.512 | 20.75
298.15 K, x2 = 0.604 | 20.81
298.15 K, x2 = 0.707 | 20.9
298.15 K, x2 = 0.809 | 21.03
298.15 K, x2 = 0.871 | 21.19
298.15 K, x2 = 0.908 | 21.44
298.15 K, x2 = 0.955 | 21.69
308.15 K, x2 = 0.105 | 19.95
308.15 K, x2 = 0.162 | 19.83
308.15 K, x2 = 0.209 | 19.81
308.15 K, x2 = 0.31 | 19.73
308.15 K, x2 = 0.403 | 19.71
308.15 K, x2 = 0.5 | 19.72
308.15 K, x2 = 0.607 | 19.71
308.15 K, x2 = 0.707 | 19.86
308.15 K, x2 = 0.807 | 20.05
308.15 K, x2 = 0.904 | 20.39
308.15 K, x2 = 0.955 | 20.77
318.15 K, x2 = 0.103 | 18.96
318.15 K, x2 = 0.205 | 18.71
318.15 K, x2 = 0.345 | 18.64
318.15 K, x2 = 0.448 | 18.6
318.15 K, x2 = 0.598 | 18.63
318.15 K, x2 = 0.703 | 18.69
318.15 K, x2 = 0.809 | 18.83
318.15 K, x2 = 0.91 | 19.18
318.15 K, x2 = 0.958 | 19.85

CCCCCCCCCCCCCC [tetradecane] + CCO
[1], 313.15 K
Conditions | surface tension liquid-gas [mN/m]
x2 = 0.054 | 24.67
x2 = 0.072 | 24.67
x2 = 0.143 | 24.53
x2 = 0.191 | 24.25
x2 = 0.3 | 23.3
x2 = 0.412 | 22.52
x2 = 0.522 | 21.98
x2 = 0.62 | 21.76
x2 = 0.702 | 21.8
x2 = 0.8 | 21.66
x2 = 0.9 | 21.4
x2 = 0.945 | 21.17
x2 = 0.967 | 21.02
x2 = 0.988 | 20.82

CCCCCCCCCC [decane]
[2]
Conditions | surface tension liquid-gas [mN/m]
303.15 K | 22.9
308.15 K | 22.5
318.15 K | 21.66

CCCCCCCCCCCC [dodecane] + CCO
surface tension liquid-gas [mN/m], [1]
Conditions | 298.15 K | 303.15 K
x2 = 0.055 | 24.87 | 24.6
x2 = 0.09 | – | 24.5
x2 = 0.097 | 24.72 | –
x2 = 0.174 | – | 24.05
x2 = 0.184 | 24.33 | –
x2 = 0.247 | – | 23.7
x2 = 0.264 | 23.95 | –
x2 = 0.332 | – | 23.35
x2 = 0.366 | 23.47 | –
x2 = 0.443 | – | 22.92
x2 = 0.472 | 23.1 | –
x2 = 0.571 | – | 22.65
x2 = 0.589 | 22.97 | –
x2 = 0.684 | – | 22.52
x2 = 0.692 | 22.92 | –
x2 = 0.795 | – | 22.39
x2 = 0.799 | 22.78 | –
x2 = 0.903 | – | 22.16
x2 = 0.905 | 22.57 | –
x2 = 0.951 | 22.38 | 21.98

CCO [ethanol]
[2]
Conditions | surface tension liquid-gas [mN/m]
298.15 K | 22.1
303.15 K | 21.7
308.15 K | 21.3
313.15 K | 20.71
318.15 K | 20.4

CCCCCCCC [octane]
[2]
Conditions | surface tension liquid-gas [mN/m]
298.15 K | 21.1
308.15 K | 20.2
318.15 K | 19.2

CCCCCCCCCCCC [dodecane]
[2]
Conditions | surface tension liquid-gas [mN/m]
298.15 K | 24.9
303.15 K | 24.73

CCCCCCCCCCCCCC [tetradecane]
Conditions | surface tension liquid-gas [mN/m]
[2], 313.15 K | 24.8
